Patent publication US8158789B2, “Arginine derivatives with NP-I antagonistic activity” (Ark Therapeutics Group Ltd., priority 2006, dated 2012)

Columns and labels:
DU145 cancer cells = test: Cell-matrix adhesion (Innocyte ECM cell adhesion assay); type: cell-based, Human; conditions: concentrations from 10-100 μM
Method: (§1) Porcine aortic endothelial cells expressing neuropilin-1 (PAE/NP-1) were cultured in Ham's F12 medium containing 10% fetal bovine serum (FBS) and 25 μg/ml hygromycin B. PAE cells expressing KDR (PAE/KDR) were grown in Ham's F12 medium containing 10% FBS and 250 μg/ml […] G418. Human carcinoma cell lines (DU145, A549 and ACHN) were grown in RPMI 1640 medium containing 10% FBS and L-glutamine.
Cell adhesion to extracellular matrix proteins (basement membrane protein complex, laminin I, collagen IV, fibronectin or vitronectin) was measured by the Innocyte ECM cell adhesion assay (Calbiochem). Cells were detached with a non-enzyme cell dissociation solution (Sigma), washed and resuspended in RPMI 1640 medium. Cells with or without peptidomimetic treatment were seeded at 3×10^4 cells per matrix-coated well of 96-well plates. After 1.5 h incubation, cells were washed with PBS. The attached cells were labelled with the green fluorescent dye calcein-AM and measured using a fluorescence plate reader at an excitation wavelength of 485 nm and an emission wavelength of 520 nm.

neuropilin-1 (NP-1) = biological target: T1, neuropilin-1 (NP-1) (Homo sapiens, UniProt O14786); test: 125I-VEGF-A165 binding; conditions: assay not given; 125I-VEGF-A165 binding is the only concentration-response binding method described
T1 construct: expressed in transfected cells; host or cells: porcine aortic endothelial cells (PAE/NP-1), hygromycin B selection
T1 sequence (O14786 22-923): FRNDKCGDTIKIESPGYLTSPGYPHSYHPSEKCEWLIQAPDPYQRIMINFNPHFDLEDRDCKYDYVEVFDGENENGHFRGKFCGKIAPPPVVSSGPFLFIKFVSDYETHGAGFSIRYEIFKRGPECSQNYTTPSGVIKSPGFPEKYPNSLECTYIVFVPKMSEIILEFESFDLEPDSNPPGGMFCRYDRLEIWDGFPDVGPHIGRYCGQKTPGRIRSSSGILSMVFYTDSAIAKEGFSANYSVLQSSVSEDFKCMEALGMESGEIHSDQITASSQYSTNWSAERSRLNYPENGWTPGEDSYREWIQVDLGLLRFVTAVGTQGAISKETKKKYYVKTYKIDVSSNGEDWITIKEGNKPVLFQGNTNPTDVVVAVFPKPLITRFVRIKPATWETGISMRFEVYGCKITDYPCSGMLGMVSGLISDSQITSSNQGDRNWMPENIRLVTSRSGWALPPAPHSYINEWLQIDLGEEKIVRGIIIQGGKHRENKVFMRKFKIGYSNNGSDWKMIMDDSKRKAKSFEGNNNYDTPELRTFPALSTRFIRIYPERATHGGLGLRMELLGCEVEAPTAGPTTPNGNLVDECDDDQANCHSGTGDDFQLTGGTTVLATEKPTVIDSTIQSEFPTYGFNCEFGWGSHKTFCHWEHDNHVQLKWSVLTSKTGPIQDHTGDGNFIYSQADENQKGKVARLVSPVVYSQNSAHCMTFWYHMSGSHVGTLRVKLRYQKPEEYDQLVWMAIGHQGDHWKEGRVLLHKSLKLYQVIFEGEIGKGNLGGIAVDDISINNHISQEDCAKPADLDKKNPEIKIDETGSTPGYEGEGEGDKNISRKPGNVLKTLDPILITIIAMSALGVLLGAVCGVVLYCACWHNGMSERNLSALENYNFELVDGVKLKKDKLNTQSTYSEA
Method: as §1
Confluent cells in 24-well plates were washed twice with phosphate-buffered saline (PBS). At 4° C. various concentrations of peptides or peptidomimetics diluted in binding medium (Dulbecco's modified Eagle's medium, 25 mM HEPES pH 7.3 containing 0.1% BSA) were added, followed by addition of 0.1 nM of ^125I-VEGF-A165 (1200-1800 Ci/mmol, GE Healthcare). After 2 h of incubation at 4° C., the medium was aspirated and washed 4 times with cold PBS. The cells were lysed with 0.25 M NaOH, 0.5% SDS solution, and the bound radioactivity of the lysates was measured in a γ counter. Non-specific binding was determined in the presence of 100-fold excess unlabelled VEGF-A165.

A549 cells [1] = test: Cell migration (chemotaxis transwell); type: cell-based, Human; conditions: concentrations from 10-100 μM
Method: as §1
(§2) Cell migration was measured in chemotaxis 24-transwell plates with collagen 1-coated inserts. The various concentrations of serum in RPMI 1640/0.1% BSA were placed in the bottom wells of the plates, while top inserts incorporating PET (polyethylene terephthalate) track-etched membranes with 8 micron pores (Becton Dickinson Biosciences) were placed over the bottom wells. Cells were trypsinised, washed and resuspended in RPMI 1640/0.1% BSA. 1.5×10^6 cells with or without peptide or peptidomimetic treatment as indicated were loaded into each top inserts, and the chemotaxis trans-well plates were incubated at 37° C. for 4 h. After the incubation, non-migrated cells on the top side of the trans-well membranes were removed, and migrated cells on the under side of the trans-well membranes were stained with the REASTAIN Quick-Diff kit (REAGENA). The stained cells from each well were counted in 4 fields at ×100 magnification using an eyepiece indexed graticule (100 grids).

ACHN cells = test: Cell migration (chemotaxis transwell); type: cell-based, Human; conditions: concentrations from 10-100 μM
Method: as §1, §2

A549 cells [2] = test: Cell viability (XTT); type: cell-based, Human; conditions: concentration of 100 μM
Method: Human carcinoma cell lines (DU145, A549 and ACHN) were grown in RPMI 1640 medium containing 10% FBS and L-glutamine. Cell Viability Cell viability was determined by measurement of conversion of the tetrazolium salt XTT to form formazon dye. Carcinoma cells were seeded at a density of 4×10^3 cells per well in 96-well plates in the absence or presence of NP-1 peptide or peptidomimetic antagonists. After 44 h incubation, XTT labelling reagent mixture (Roche) was added to the cultures and they were incubated for a further 4 h. The formazon production was then measured at A490 nm with a reference wavelength at 595 nm.

Row | Compound | inhibiting the adhesion of DU145 cancer cells to extracellular matrix proteins (DU145 cancer cells) | IC50 (neuropilin-1 (NP-1)) [µM] | migration of A549 cells (A549 cells [1]) | migration of ACHN cells (ACHN cells) | viability of A549 cells (A549 cells [2])
1 | N=C(N)NCCC[C@H](NC(=O)c1sccc1NS(=O)(=O)c1ccc(N)cc1)C(=O)O [EG00144, (S)-2-{[3-(4-Amino-benzenesulfonylamino)-thiophene-2-carbonyl]-amino}-5-guanidino-pentanoic acid] | effective | < 20 | decreased migration | decreased migration | –
2 | N=C(N)NCCC[C@H](NC(=O)c1sccc1NS(=O)(=O)c1cccc2nsnc12)C(=O)O [EG00229, (S)-2-{[3-(Benzo[1,2,5]thiadiazole-4-sulfonylamino)-thiophene-2-carbonyl]-amino}-5-guanidino-pentanoic acid] | – | < 20 | – | – | reduced the viability
